In assay [1] the test system is SH-SY5Y. Briefly: Cytotoxicity against human SH-SY5Y cells after 24 hrs. The class given is functional, cell-based.
In assay [2] the test system is SH-SY5Y. Briefly: Antiproliferative activity against human SH-SY5Y cells at 50 ug/mL after 24 hrs. The class given is functional.
The test system of assay [3] is SH-SY5Y. Briefly: Antiproliferative activity against human SH-SY5Y cells at 25 ug/mL after 24 hrs. The class given is functional.
The subject of assay [4] is SH-SY5Y. Briefly: Antiproliferative activity against human SH-SY5Y cells at 12.5 ug/mL after 24 hrs. The class given is functional.
For assay [5], the system named is SH-SY5Y. Put plainly: Antiproliferative activity against human SH-SY5Y cells at 6.25 ug/mL after 24 hrs. The class given is functional.
Assay [6] has as its system SH-SY5Y. Put plainly: Antiproliferative activity against human SH-SY5Y cells at 3.13 ug/mL after 24 hrs. The class given is functional.
Assay [7] relates to SH-SY5Y. Briefly: Antiproliferative activity against human SH-SY5Y cells at 1.56 ug/mL after 24 hrs. The class given is functional.
For assay [8], the system named is IPC. Briefly: Necrotic effect in human IPC cells at 12.5 ug/mL after 3 hrs. The class given is functional, cell-based.

The structures appear in SMILES notation. Active and inactive are the calls of the source. The calls are words filed in the database; no cut-off is given here.

Turning to `CC1=Cc2c(cc(C)oc2=O)OC1C` (configuration not stated), in assay [1], it took 200 µM to reach half-maximal inhibition (IC50). Moreover, in assay [2], testing at 50 µg/mL gave an inhibition of 53.8%. Moreover, the inhibition (in general, the drop in the measured response relative to a control, in per cent) at 25 µg/mL in assay [3] came to 43.8%.
The corresponding values for `CC(C)=CCCC1(C)C=Cc2c(cc(C)oc2=O)O1` (configuration not stated) are above 200 µM, 37.4% and 30.4%.
Regarding `CCCCCCCCC1C=Cc2c(cc(C)oc2=O)O1` (configuration not stated), the half-maximal inhibitory concentration (IC50) – broadly, the concentration that inhibits the measured activity by half – in assay [1] was determined as 76 µM. For the same molecule, the inhibition at 12.5 µg/mL in assay [4] came to 21.1%. In assay [2], this molecule gave an inhibition at 50 µg/mL of 83.3%. For the same molecule, in assay [3], at 25 µg/mL the inhibition was 60.1%.
With `Cc1cc2c(c(=O)o1)C=C1C(C)(C)CCCC1(C)O2` (configuration not stated), the inhibition at 6.25 µg/mL in assay [5] turned out to be 18.4%. The inhibition at 3.13 µg/mL in assay [6] came to 1.11%. The molecule also gave an IC50 in assay [1] of 31 µM. Also, testing at 12.5 µg/mL in assay [4] gave an inhibition of 72.9%. In assay [2], this molecule gave an inhibition at 50 µg/mL of 75.1%. The same molecule registered an inhibition at 25 µg/mL in assay [3] of 74.2%. Moreover, at 1.56 µg/mL the inhibition in assay [7] was 8.34%.
`CCC1C=Cc2c(cc(C)oc2=O)O1` (configuration not stated) yielded an IC50 in assay [1] above 200 µM. Besides, testing at 12.5 µg/mL in assay [4] gave an inhibition of 3.62%. This molecule also yielded an inhibition at 50 µg/mL in assay [2] of 43.7%. In assay [3], the inhibition at 25 µg/mL is 4.95%.
In the case of `Cc1cc2c(c(=O)o1)C=C1CCCC1O2` (configuration not stated), the IC50 in assay [1] is 252 µM. The molecule further came in with an inhibition at 12.5 µg/mL in assay [4] of 19.3%. In assay [2], this molecule registered an inhibition at 50 µg/mL of 51.2%. The molecule also displayed an inhibition at 25 µg/mL in assay [3] of 14.9%.
Consider `Cc1cc2c(c(=O)o1)C=C1C(C[C@H]3C[C@@H]1C3(C)C)O2` (some centres not stated), for which half-maximal inhibition in assay [1] (IC50) was put at 70 µM. In assay [4], 12.5 µg/mL produced 24.4% inhibition. The same molecule had an inhibition at 50 µg/mL in assay [2] of 84.1%. Besides, the inhibition at 25 µg/mL in assay [3] was found to be 67.8%.
In assay [5], `CC1=Cc2c(cc(C)oc2=O)OC1c1ccco1` (configuration not stated) displayed an inhibition at 6.25 µg/mL of 30.9%. The inhibition at 3.13 µg/mL in assay [6] turned out to be 21.6%. Besides, 49 µM corresponded to half-maximal inhibition in assay [1] (IC50). Moreover, at 12.5 µg/mL the inhibition in assay [4] was 50.6%. This molecule displayed an inhibition at 50 µg/mL in assay [2] of 64.4%. In assay [3], this molecule registered an inhibition at 25 µg/mL of 64.3%.
With `Cc1cc2c(c(=O)o1)C=C1CCCCC1(C)O2` (configuration not stated), in assay [1], the IC50 came out at 185 µM. The same molecule displayed an inhibition at 12.5 µg/mL in assay [4] of 1.18%. The same molecule had an inhibition at 50 µg/mL in assay [2] of 60.6%. For the same molecule, 25 µg/mL produced 11.4% inhibition in assay [3].
In the same order, the values of `Cc1cc2c(c(=O)o1)C=C(c1ccccc1)C(CC(C)C)O2` (configuration not stated) are 93 µM, 14.6%, 81.7% and 45.7%.
`Cc1cc2c(c(=O)o1)C=C1C(C)(C)CC=CC1(C)O2` (configuration not stated) returned an inhibition at 6.25 µg/mL in assay [5] of 16.9%. Besides, the inhibition at 3.13 µg/mL in assay [6] was 6.01%. Also, in assay [1], the IC50 was 47 µM. Besides, the inhibition at 12.5 µg/mL in assay [4] was 51.9%. In addition, the inhibition at 50 µg/mL in assay [2] was found to be 84.8%. The molecule further returned an inhibition at 25 µg/mL in assay [3] of 79.8%.
The molecule `Cc1cc2c(c(=O)o1)C=C(C(C)C)C(CC(C)C)O2` (configuration not stated) showed an inhibition at 6.25 µg/mL in assay [5] of 93.8%. For the same molecule, at 3.13 µg/mL the inhibition in assay [6] was 87.5%. In assay [8], the outcome was inactive. The molecule also yielded an IC50 in assay [1] of 6.7 µM. Besides, the inhibition at 12.5 µg/mL in assay [4] worked out at 94%. Also, the inhibition at 50 µg/mL in assay [2] was determined as 95.7%. Also, the inhibition at 25 µg/mL in assay [3] came to 96.6%. The same molecule displayed an inhibition at 1.56 µg/mL in assay [7] of 38.5%.

For the origin of these results see ChEMBL document CHEMBL1146337, “Efficient synthesis of substituted 7-methyl-2H,5H-pyrano[4,3-b]pyran-5-ones and evaluation of their in vitro antiproliferative/cytotoxic activities” (Bioorg Med Chem Lett, 2007).
